{"source": "PubChem BioAssay AID1963432", "about": "(Molecular Pharmacology Branch, DTP, NCI, 2024)", "tested_on": "SYO-1 complex spheroid growth, percent test/control", "assay": "Anticancer human tumor SYO-1 cell line growth inhibition [Asc];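 on all read-outs here: compound exposure lasted 7 days after spheroids grew 3 days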;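 on viability, T/C: 100% = DMSO vehicle control viability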", "conditions": "for pIC50: curve of first compound; for viability, T/C: stronger effect = lower value", "outline": "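Concentration series start at each agent's clinical Cmax, or at 10 microM when none is established, and drop in half-log steps; agents are applied alone or together to complex spheroids built with HUVEC and hMSC.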", "note": "pIC50: −log10 of the molar value.", "data": [{"smiles": "COc1c(OCCCN2CCOCC2)ccc2c3n(c(=NC(=O)c4cnc(N)nc4)nc12)CCN3", "note": "+ Cc1c(S(C)(=O)=O)c(-c2cc(F)cc(N3CCN(c4ccc(NS(=O)(=O)c5ccc(NC(CCN6CCC(C(=O)OCCCP(=O)(O)O)CC6)CSc6ccccc6)c(S(=O)(=O)C(F)(F)F)c5)cc4)CC3)c2)c(-c2ccc(Cl)cc2)n1C(C)C", "values": [{"measurement": "pIC50", "setting": "second compound 0.0316 µM", "value": 6.19}, {"measurement": "pIC50", "setting": "second compound 0.1 µM", "value": 6.22}, {"measurement": "pIC50", "setting": "second compound 0.316 µM", "value": 6.29}, {"measurement": "pIC50", "setting": "second compound 1 µM", "value": 6.34}, {"measurement": "pIC50", "setting": "second compound 3.16 µM", "value": 6.52}, {"measurement": "pIC50", "setting": "second compound 10 µM", "value": 6.71}, {"measurement": "viability, T/C", "setting": "second compound 0.0316 µM, first compound 0.00316 µM", "value": 104, "unit": "%"}, {"measurement": "viability, T/C", "setting": "second compound 0.0316 µM, first compound 0.01 µM", "value": 93.8, "unit": "%"}, {"measurement": "viability, T/C", "setting": "second compound 0.0316 µM, first compound 0.0316 µM", "value": 93.5, "unit": "%"}, {"measurement": "viability, T/C", "setting": "second compound 0.0316 µM, first compound 0.1 µM", "value": 83.1, "unit": "%"}, {"measurement": "viability, T/C", "setting": "second compound 0.0316 µM, first compound 0.316 µM", "value": 74.6, "unit": "%"}, {"measurement": "viability, T/C", "setting": "second compound 0.0316 µM, first compound 1 µM", "value": 36.4, "unit": "%"}, {"measurement": "viability, T/C", "setting": "second compound 0.1 µM, first compound 0.00316 µM", "value": 99.2, "unit": "%"}, {"measurement": "viability, T/C", "setting": "second compound 0.1 µM, first compound 0.01 µM", "value": 97, "unit": "%"}, {"measurement": "viability, T/C", "setting": "second compound 0.1 µM, first compound 0.0316 µM", "value": 91.8, "unit": "%"}, {"measurement": "viability, T/C", "setting": "second compound 0.1 µM, first compound 0.1 µM", "value": 80.3, "unit": "%"}, {"measurement": "viability, T/C", "setting": "second compound 0.1 µM, first compound 0.316 µM", "value": 69.5, "unit": "%"}, {"measurement": "viability, T/C", "setting": "second compound 0.1 µM, first compound 1 µM", "value": 35.6, "unit": "%"}, {"measurement": "viability, T/C", "setting": "second compound 0.316 µM, first compound 0.00316 µM", "value": 90.7, "unit": "%"}, {"measurement": "viability, T/C", "setting": "second compound 0.316 µM, first compound 0.01 µM", "value": 98.3, "unit": "%"}, {"measurement": "viability, T/C", "setting": "second compound 0.316 µM, first compound 0.0316 µM", "value": 94.1, "unit": "%"}, {"measurement": "viability, T/C", "setting": "second compound 0.316 µM, first compound 0.1 µM", "value": 82.4, "unit": "%"}, {"measurement": "viability, T/C", "setting": "second compound 0.316 µM, first compound 0.316 µM", "value": 65.8, "unit": "%"}, {"measurement": "viability, T/C", "setting": "second compound 0.316 µM, first compound 1 µM", "value": 28.5, "unit": "%"}, {"measurement": "viability, T/C", "setting": "second compound 1 µM, first compound 0.00316 µM", "value": 91.5, "unit": "%"}, {"measurement": "viability, T/C", "setting": "second compound 1 µM, first compound 0.01 µM", "value": 100, "unit": "%"}, {"measurement": "viability, T/C", "setting": "second compound 1 µM, first compound 0.0316 µM", "value": 94.7, "unit": "%"}, {"measurement": "viability, T/C", "setting": "second compound 1 µM, first compound 0.1 µM", "value": 87.5, "unit": "%"}, {"measurement": "viability, T/C", "setting": "second compound 1 µM, first compound 0.316 µM", "value": 63.4, "unit": "%"}, {"measurement": "viability, T/C", "setting": "second compound 1 µM, first compound 1 µM", "value": 20.5, "unit": "%"}, {"measurement": "viability, T/C", "setting": "second compound 3.16 µM, first compound 0.00316 µM", "value": 92.5, "unit": "%"}, {"measurement": "viability, T/C", "setting": "second compound 3.16 µM, first compound 0.01 µM", "value": 91.1, "unit": "%"}, {"measurement": "viability, T/C", "setting": "second compound 3.16 µM, first compound 0.0316 µM", "value": 92.3, "unit": "%"}, {"measurement": "viability, T/C", "setting": "second compound 3.16 µM, first compound 0.1 µM", "value": 78.1, "unit": "%"}, {"measurement": "viability, T/C", "setting": "second compound 3.16 µM, first compound 0.316 µM", "value": 49, "unit": "%"}, {"measurement": "viability, T/C", "setting": "second compound 3.16 µM, first compound 1 µM", "value": 11.6, "unit": "%"}, {"measurement": "viability, T/C", "setting": "second compound 10 µM, first compound 0.00316 µM", "value": 83.2, "unit": "%"}, {"measurement": "viability, T/C", "setting": "second compound 10 µM, first compound 0.01 µM", "value": 88.7, "unit": "%"}, {"measurement": "viability, T/C", "setting": "second compound 10 µM, first compound 0.0316 µM", "value": 72.3, "unit": "%"}, {"measurement": "viability, T/C", "setting": "second compound 10 µM, first compound 0.1 µM", "value": 62, "unit": "%"}, {"measurement": "viability, T/C", "setting": "second compound 10 µM, first compound 0.316 µM", "value": 41.7, "unit": "%"}, {"measurement": "viability, T/C", "setting": "second compound 10 µM, first compound 1 µM", "value": 6.85, "unit": "%"}]}]}
